Where “and” joins values, the source holds several entries; their conditions need not be identical. Equal entries are not always repeated.
How the values were obtained:
[1] = Adult DEE patients (Part A/Part B): safety and tolerability; format: in vivo, human
Source text: (§1) The third clinical trial was a randomized, double-blind, placebo controlled study. […] After the completion of Part A, 16 patients continued in Part B with open-label treatment for 60 additional days. Patients were included in the trial if they were 18-65 years of age with an established diagnosis of DEE, such as Lennox-Gastaut syndrome, Dravet syndrome, or tuberous sclerosis complex. For enrollment, patients were required to have had at least two bilateral motor seizures per month in the three months prior. In addition, during the 4-week baseline period prior to dosing, patients were required to have incurred at least one bilateral motor seizure. Exclusion criteria included abnormal ECG, degenerative eye disease, or admission to emergency care for treatment of status epilepticus that required mechanical ventilation.
Only patients having at least one bilateral seizure during the baseline study were eligible to continue. […] The range of seizure types included tonic-clonic, drop seizures, tonic, atonic, bilateral clonic, myoclonic-atonic, myotonic-tonic-clonic, and focal seizures. Aside from seizure history, subjects were also enrolled based on an establish diagnosis of DEE, such as Lennox-Gastaut syndrome (LGS) and Dravet syndrome (DS), tuberous sclerosis complex, and a history of special education or an overall intellectual quotient of <70. […] Subjects could continue taking 1-4 anti-seizure medicines (ASM), with the exception of stiripentol, during the study. […]
The safety and tolerability assessments included blood pressure, heart rate, respiratory rate, temperature, treatment-emergent adverse effects, clinical laboratory tests, electrocardiogram data, neurological and ophthalmic examination, and the Columbia-suicide severity rating scale (C-SSRS).
Patients were dosed 100 mg, 200 mg, or 300 mg BID. Dosage (mg BID) in each interval reflects the final dose during that interval. Fields showing 0 mg in days 1-10, 11-20, and 21-30 intervals are patients who were assigned to the placebo group in Part A of the study.

[2] = system: seizure frequency in developmental and/or epileptic encephalopathy patients; assay: Adult DEE patients: antiseizure efficacy (seizure frequency); format: in vivo, human
Source text: as §1
Only patients having at least one bilateral seizure during the baseline study were eligible to continue. […] The range of seizure types included tonic-clonic, drop seizures, tonic, atonic, bilateral clonic, myoclonic-atonic, myotonic-tonic-clonic, and focal seizures. Aside from seizure history, subjects were also enrolled based on an establish diagnosis of DEE, such as Lennox-Gastaut syndrome (LGS) and Dravet syndrome (DS), tuberous sclerosis complex, and a history of special education or an overall intellectual quotient of <70. […] Subjects could continue taking 1-4 anti-seizure medicines (ASM), with the exception of stiripentol, during the study.
FIG. 9A depicts the study paradigm and FIG. 9B depicts the patient disposition. […] Part B consisted of an open-label 85-day extension study to ensure long-term safety and tolerability. The first 20 days of part A consisted of a tolerability titration phase, and thereafter a maintenance phase lasting from days 21-30.

[3] = clinical; conditions: human, in vivo; for AUC: AUC24 / mean steady-state area under the curve
Procedure: Soticlestat was administered in tablet formulation during fasting condition. […] Blood samples were obtained before the first morning dose, and at 1, 3, and 5 hours post-dose. On days 11 and 21, blood samples were taken before the morning dose and 1 hour post-dose. In Part B, patients were administered 200 mg BID for days 31-40, followed by 300 mg BID for days 41-85. On days 31, 41, and 85, blood samples were taken before the morning dose. […] The AUC24 for doses 100, 200, and 300 mg BID were 562.5, 1437, and 2188 ng×h/mL, respectively.
Blood samples were collected before and after the morning dose on days 1, 11, and 21, and before and after the morning dose on days 31, 41, and 85.

[4] = system: plasma 24HC; assay: Multiple rising dose study: pharmacodynamics, plasma 24HC; format: in vivo, human
Procedure: An 8 mL blood sample was collected to obtain plasma 24HC levels for PD analysis on day 1 and day 14 at 30 minutes pre-dose and at 30 minutes, and 1, 2, 4, 8, 12, 16, and 24 hours post-dose. The mean 24-hour area under the effect curve (AUEC24), presented as the percent change in 24HC from baseline, for doses 100, 300, and 400 mg were −46.8, −61.9, and −62.7, respectively. […] Example 7 below further describes the study's PD protocol and trial results, including safety (example 8).
Plasma 24HC collection and measurement were as described in example 5, with the exception that the 30—minute pre-dose sampling occurred on day 1, 7, 12, 13 and 14, and the 24-hour sampling occurred on day 1 and 14. Assay quality control measures, parameter and statistical analyses were performed as described in example 5. […] Subjects in the 300 mg BID and 600 mg QD cohorts discontinued treatment after day 10 due to some subjects experiencing adverse effects.

O=C(c1cccnc1-c1ccncc1)N1CCC(O)(Cc2ccccc2)CC1 [soticlestat]
Upper respiratory tract infection, n participants ([1]; Part A, soticlestat (n = 14)): 2 n | Upper respiratory tract infection, n participants ([1]; Part B open-label, all (n = 16)): 1 n | Dysarthria, n participants ([1]; human, in vivo, 30 days): 3 n | Fatigue, n participants ([1]; human, in vivo, 30 days): 2 n | Headache, n participants ([1]; human, in vivo, 30 days): 2 n | Lethargy, n participants ([1]; human, in vivo, 30 days): 2 n | TEAE incidence ([1]; human, in vivo, 30 days): 71.4% | deaths ([1]; soticlestat arm): no deaths | change in seizure frequency from baseline, individual patients ([2]; Part A, three patients treated concurrently with perampanel): +107% and +465% and +4% | median percent change from baseline seizure frequency ([2]; Part B maintenance, days 42-85 (n=16)): −36.38% | median percent change from baseline seizure frequency ([2]; Part B, excluding patients taking perampanel (n=13)): −44.66% | change in seizure frequency from baseline, individual patients ([2]; Part B, three patients taking perampanel): +297% and +398% and +175% | median seizure frequency ([2]; all completers except those taking perampanel): 25.60 per 28 days | reduction in seizure frequency in two patients ([2]; last 4 weeks/month of treatment): 100% | median percent change from baseline seizure frequency ([2]; last 28 days of Part B (post-hoc)): −60.74% | clearance ([3]; 100 mg): 4320 mL/min | AUC ([3]; 100 mg): 562 ng·h/mL | Cmax ([3]; 100 mg, Cmax steady state, mean): 270 ng/mL | clearance ([3]; 200 mg): 3260 mL/min | AUC ([3]; 200 mg): 1440 ng·h/mL | Cmax ([3]; 200 mg, Cmax steady state, mean): 640 ng/mL | clearance ([3]; 300 mg): 3170 mL/min | AUC ([3]; 300 mg): 2190 ng·h/mL | Cmax ([3]; 300 mg, Cmax steady state, mean): 975 ng/mL | Cmax ([3]; Study TAK-935-2001, 200 mg BID, Mean, read-out: Cmax, ss): 1270 ng/mL | 24HC AUEC24, mean, percent change from baseline (day −1) ([4]; 100 mg QD day 1): −8.15% | 24HC E24, mean, percent change from baseline (day −1) ([4]; 100 mg QD day 1): −20.9% | 24HC AUEC24, mean, percent change from baseline (day −1) ([4]; 100 mg QD day 14): −46.8% | 24HC E24, mean, percent change from baseline (day −1) ([4]; 100 mg QD day 14): −49.1% | 24HC AUEC24, mean, percent change from baseline (day −1) ([4]; 300 mg BID day 1): −6.90% | 24HC E24, mean, percent change from baseline (day −1) ([4]; 300 mg BID day 1): −10.5% | 24HC AUEC24, mean, percent change from baseline (day −1) ([4]; 300 mg QD day 1): −12.7% | 24HC E24, mean, percent change from baseline (day −1) ([4]; 300 mg QD day 1): −22.4% | 24HC AUEC24, mean, percent change from baseline (day −1) ([4]; 300 mg QD day 14): −61.9% | 24HC E24, mean, percent change from baseline (day −1) ([4]; 300 mg QD day 14): −63.8% | 24HC AUEC24, mean, percent change from baseline (day −1) ([4]; 400 mg QD day 1): −11.7% | 24HC E24, mean, percent change from baseline (day −1) ([4]; 400 mg QD day 1): −28.4% | 24HC AUEC24, mean, percent change from baseline (day −1) ([4]; 400 mg QD day 14): −62.7% | 24HC E24, mean, percent change from baseline (day −1) ([4]; 400 mg QD day 14): −65.6% | 24HC AUEC24, mean, percent change from baseline (day −1) ([4]; 600 mg QD day 1): −14.0% | 24HC E24, mean, percent change from baseline (day −1) ([4]; 600 mg QD day 1): −30.6%
